# Measurements from patent US11504355B2, “Ergothioneine compositions and methods for maintaining and/or increasing vitamin C levels in cells and organisms” (Mironova Innovations, LLC, priority 2018, dated 2022).
# Tested on: Human skin fibroblasts
# Experiment: Ascorbic acid colorimetric assay in human skin fibroblasts, with or without alloxan-induced oxidative stress
# Type: cell-based
# Experimental: This example provides methods and results from studies evaluating the effect of ergothioneine on vitamin C in human fibroblast cells. Human skin fibroblasts were cultured for 18 hours in T-25 flasks. Cells were incubated with 1) control solution, 2) magnesium ascorbyl phosphate, or 3) magnesium ascorbyl phosphate+ergothioneine (1:100). Cells in each group were then treated for 6 hours with a) control solution or b) 500 μM alloxan to induce oxidative stress. All samples were assayed for ascorbic acid with an ascorbic acid colorimetric assay (Biovision catalog no. K671). Results are provided in the table below, where ascorbic acid content (nmol) in human skin fibroblasts per one million cells is reported.
# [1] = 0.158% of test solution, no alloxan
# [2] = 0.158% of test solution, with 500 uM Alloxan (6 hours, oxidative stress)
# [3] = 0.5% of test solution, no alloxan
# [4] = 0.5% of test solution, with 500 uM Alloxan (6 hours, oxidative stress)
# [5] = 1.58% of test solution, no alloxan
# [6] = 1.58% of test solution, with 500 uM Alloxan (6 hours, oxidative stress)
# [7] = 5% of test solution, no alloxan
# [8] = 5% of test solution, with 500 uM Alloxan (6 hours, oxidative stress)
compound,measurement,setting,value
"O=C1O[C@H]([C@@H](O)CO)C([O-])=C1OP(=O)([O-])[O-].O=C1O[C@H]([C@@H](O)CO)C([O-])=C1OP(=O)([O-])[O-].[Mg+2].[Mg+2].[Mg+2] [MAP solution, magnesium ascorbyl phosphate]","ascorbic acid content in human skin fibroblasts per one million cells, Ave",[1],10.14 nmol
same,"ascorbic acid content in human skin fibroblasts per one million cells, Sample A",[1],9.94 nmol
same,"ascorbic acid content in human skin fibroblasts per one million cells, Sample B",[1],10.34 nmol
same,"ascorbic acid content in human skin fibroblasts per one million cells, Ave",[2],4.93 nmol
same,"ascorbic acid content in human skin fibroblasts per one million cells, Sample A",[2],4.84 nmol
same,"ascorbic acid content in human skin fibroblasts per one million cells, Sample B",[2],5.01 nmol
same,"ascorbic acid content in human skin fibroblasts per one million cells, Ave",[3],21.51 nmol
same,"ascorbic acid content in human skin fibroblasts per one million cells, Sample A",[3],21.68 nmol
same,"ascorbic acid content in human skin fibroblasts per one million cells, Sample B",[3],21.33 nmol
same,"ascorbic acid content in human skin fibroblasts per one million cells, Ave",[4],9.77 nmol
same,"ascorbic acid content in human skin fibroblasts per one million cells, Sample A",[4],9.54 nmol
same,"ascorbic acid content in human skin fibroblasts per one million cells, Sample B",[4],9.99 nmol
same,"ascorbic acid content in human skin fibroblasts per one million cells, Ave",[5],49.89 nmol
same,"ascorbic acid content in human skin fibroblasts per one million cells, Sample A",[5],49.23 nmol
same,"ascorbic acid content in human skin fibroblasts per one million cells, Sample B",[5],50.54 nmol
same,"ascorbic acid content in human skin fibroblasts per one million cells, Ave",[6],12.17 nmol
same,"ascorbic acid content in human skin fibroblasts per one million cells, Sample A",[6],11.88 nmol
same,"ascorbic acid content in human skin fibroblasts per one million cells, Sample B",[6],12.46 nmol
same,"ascorbic acid content in human skin fibroblasts per one million cells, Ave",[7],50.77 nmol
same,"ascorbic acid content in human skin fibroblasts per one million cells, Sample A",[7],50.20 nmol
same,"ascorbic acid content in human skin fibroblasts per one million cells, Sample B",[7],51.35 nmol
same,"ascorbic acid content in human skin fibroblasts per one million cells, Ave",[8],13.37 nmol
same,"ascorbic acid content in human skin fibroblasts per one million cells, Sample A",[8],13.37 nmol
same,"ascorbic acid content in human skin fibroblasts per one million cells, Sample B",[8],13.37 nmol
C[N+](C)(C)[C@@H](Cc1c[nH]c(=S)[nH]1)C(=O)[O-] [ergothioneine],increase of ascorbic acid levels following oxidative stress,"1:100 ergothioneine (EGT) to magnesium ascorbyl phosphate (MAP), following oxidative stress",up to 300%
same,ascorbic acid absorbed by the fibroblast cells with versus without ergothioneine,"FIG. 1, no oxidative stress",equally absorbed
same,amount of ascorbic acid in fibroblast cells following oxidative stress in the presence of ergothioneine,"FIG. 3, following oxidative stress",synergistically increased
same,boost of vitamin C levels in a cell,"synergistic amount of ergothioneine, summary of the examples",three-fold or more
